According to ChEMBL document CHEMBL1144154, “7-[1H-Indol-2-yl]-2,3-dihydro-isoindol-1-ones as dual Aurora-A/VEGF-R2 kinase inhibitors: design, synthesis, and biological activity” (Bioorg Med Chem Lett, 2008):
pIC50: −log10 of the molar value. Calls of active or inactive are those of the source. The rule behind the calls is not given here.

Tests used:
[1] = biological target: T1, Aurora kinase A (Homo sapiens, UniProt O14965); assay: Inhibition of Aurora A
T1 sequence (O14965 whole entry): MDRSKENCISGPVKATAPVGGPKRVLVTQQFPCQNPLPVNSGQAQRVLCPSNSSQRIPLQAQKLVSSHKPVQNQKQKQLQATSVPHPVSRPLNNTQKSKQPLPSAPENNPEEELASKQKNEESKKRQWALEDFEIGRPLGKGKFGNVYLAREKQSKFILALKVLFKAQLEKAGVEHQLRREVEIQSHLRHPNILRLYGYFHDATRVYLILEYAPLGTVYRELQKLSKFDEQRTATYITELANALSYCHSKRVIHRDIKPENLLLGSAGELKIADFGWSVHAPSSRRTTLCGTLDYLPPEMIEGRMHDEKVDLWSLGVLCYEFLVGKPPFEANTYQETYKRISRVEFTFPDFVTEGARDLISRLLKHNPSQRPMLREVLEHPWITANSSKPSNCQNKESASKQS

[2] = biological target: T2, Cyclin-dependent kinase 1 (Homo sapiens, UniProt P06493); assay: Inhibition of CDK1
Target sequence in this assay (P06493 whole entry): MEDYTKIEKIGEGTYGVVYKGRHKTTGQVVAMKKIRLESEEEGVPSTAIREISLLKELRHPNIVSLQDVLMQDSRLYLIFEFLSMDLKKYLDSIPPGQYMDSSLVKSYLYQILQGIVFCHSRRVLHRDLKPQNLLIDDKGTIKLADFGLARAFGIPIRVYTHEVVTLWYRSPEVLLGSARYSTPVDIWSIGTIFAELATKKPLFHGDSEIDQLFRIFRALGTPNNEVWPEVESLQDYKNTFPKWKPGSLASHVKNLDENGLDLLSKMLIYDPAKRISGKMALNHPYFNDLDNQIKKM

[3] = biological target: T3, Vascular endothelial growth factor receptor 2 (Homo sapiens, UniProt P35968); assay: Inhibition of VEGFR2
T3 sequence (P35968 whole entry): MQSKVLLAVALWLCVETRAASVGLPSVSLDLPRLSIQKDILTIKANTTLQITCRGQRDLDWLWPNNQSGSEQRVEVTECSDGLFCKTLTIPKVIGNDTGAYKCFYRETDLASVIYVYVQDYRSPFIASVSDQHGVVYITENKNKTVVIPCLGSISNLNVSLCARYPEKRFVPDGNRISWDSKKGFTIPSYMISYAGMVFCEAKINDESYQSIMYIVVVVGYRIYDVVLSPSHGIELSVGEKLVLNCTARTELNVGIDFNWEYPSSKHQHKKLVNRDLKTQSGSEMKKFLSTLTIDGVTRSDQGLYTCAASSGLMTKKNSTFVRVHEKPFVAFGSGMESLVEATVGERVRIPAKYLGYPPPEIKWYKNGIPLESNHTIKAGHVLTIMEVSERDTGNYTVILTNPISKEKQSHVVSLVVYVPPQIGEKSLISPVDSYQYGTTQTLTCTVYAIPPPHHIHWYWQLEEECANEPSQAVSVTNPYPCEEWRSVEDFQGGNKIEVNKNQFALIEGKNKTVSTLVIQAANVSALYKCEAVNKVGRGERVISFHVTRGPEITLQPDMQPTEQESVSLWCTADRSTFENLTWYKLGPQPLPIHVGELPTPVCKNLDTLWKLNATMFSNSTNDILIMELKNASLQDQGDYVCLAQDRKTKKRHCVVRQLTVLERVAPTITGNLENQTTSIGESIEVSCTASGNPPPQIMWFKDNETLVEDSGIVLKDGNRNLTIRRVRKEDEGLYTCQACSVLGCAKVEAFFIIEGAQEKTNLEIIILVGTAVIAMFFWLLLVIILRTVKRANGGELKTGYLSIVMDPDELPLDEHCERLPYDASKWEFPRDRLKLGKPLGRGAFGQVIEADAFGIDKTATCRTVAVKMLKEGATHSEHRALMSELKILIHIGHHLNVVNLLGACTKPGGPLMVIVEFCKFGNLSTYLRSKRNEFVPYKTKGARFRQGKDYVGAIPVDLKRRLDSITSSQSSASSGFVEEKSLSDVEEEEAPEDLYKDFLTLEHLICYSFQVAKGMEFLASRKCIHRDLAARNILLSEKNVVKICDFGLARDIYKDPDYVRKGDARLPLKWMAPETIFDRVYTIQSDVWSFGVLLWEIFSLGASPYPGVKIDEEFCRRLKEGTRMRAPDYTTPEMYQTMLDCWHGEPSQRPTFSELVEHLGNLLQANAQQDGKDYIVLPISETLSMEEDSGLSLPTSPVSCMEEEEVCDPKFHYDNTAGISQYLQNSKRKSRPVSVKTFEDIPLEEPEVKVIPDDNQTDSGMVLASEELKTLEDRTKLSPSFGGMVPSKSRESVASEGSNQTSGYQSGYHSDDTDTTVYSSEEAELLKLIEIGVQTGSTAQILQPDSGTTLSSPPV

[4] = biological target: T4, Aurora kinase A (Homo sapiens) (UniProt O14965); assay: Inhibition of Aurora A at 100 uM
T4 sequence (whole entry): T1 sequence (O14965 whole entry)

[5] = biological target: T2, Cyclin-dependent kinase 1; assay: Inhibition of CDK1 at 100 uM
Target sequence in this assay (P06493 whole entry, looked up): as the sequence (P06493 whole entry) above

[6] = biological target: T3, Vascular endothelial growth factor receptor 2; assay: Inhibition of VEGFR2 at 100 uM
[7] = Drug concentration in nude mouse plasma at 10 mg/kg after 4 hrs; assay type: ADME, organism-based; set-up: dose 10 mg/kg
[8] = tested on: HeLa; assay: Induction of polyploidy in human HeLa cells assessed as increase in cells with >4N DNA content at 2.5 uM after 72 hrs by FACS analysis
[9] = Oral bioavailability in rat at 10 mg/kg; assay type: ADME, organism-based; details: in vivo
[10] = Cmax in rat at 10 mg/kg, po; assay type: ADME, organism-based; set-up: dose 10 mg/kg, route oral; details: in vivo
[11] = Drug concentration in nude mouse plasma at 10 mg/kg after 2 hrs; assay type: ADME, organism-based; set-up: dose 10 mg/kg
[12] = Drug concentration in nude mouse plasma at 10 mg/kg after 1 hr; assay type: ADME, organism-based; set-up: dose 10 mg/kg
[13] = tested on: A-375; assay: Antitumor activity in human A375 cells […] nude mouse assessed as inhibition of tumor growth at 100 mg/kg, ip relative to control; assay type: functional; set-up: scale not given: the % may be the effect or the level left; details: route intraperitoneal
[14] = Half life in rat at 10 mg/kg, po; assay type: ADME, organism-based; set-up: dose 10 mg/kg, route oral; details: in vivo
[15] = Drug concentration in nude mouse plasma at 10 mg/kg after 0.5 hrs; assay type: ADME, organism-based; set-up: dose 10 mg/kg
[16] = biological target: T3, Vascular endothelial growth factor receptor 2; assay: Inhibition of VEGFR2 at 0.1 uM

| pIC50 [1] | pIC50 [2] | pIC50 [3] | SMILES | further results |
| --- | --- | --- | --- | --- |
| < 4.00 |  | < 4.00 | COC(=O)c1cccc2c1C(=O)NC2 |  |
| 6.87 | < 4.00 | 7.13 | O=C1NCc2cccc(-c3cc4cc(OCCN5CCOCC5)ccc4[nH]3)c21 |  |
| 6.70 | < 4.00 | 7.25 | O=C1NCc2cccc(-c3cc4cc(OCCN5CCCCC5)ccc4[nH]3)c21 | concentration at 4 h [7]: 12 ng/mL; Activity [8]: Active; bioavailability [9]: 20%; Cmax [10]: 391 ng/mL; concentration at 2 h [11]: 41 ng/mL; concentration at 1 h [12]: 160 ng/mL; Activity [13]: 46%; half-life [14]: 54 min; concentration at 0.5 h [15]: 154 ng/mL |
| 7.05 | 4.88 | 6.92 | O=C1NCc2cccc(-c3cc4cc(O)ccc4[nH]3)c21 |  |
| < 4.00 |  | < 4.00 | O=C(O)c1cccc2c1C(=O)NC2 |  |

Second part, the molecule before the results:

| SMILES | pIC50 [1] | pIC50 [2] | pIC50 [3] | further results |
| --- | --- | --- | --- | --- |
| O=C1NCc2cccc(-c3cc4cc(OCc5ccccc5)ccc4[nH]3)c21 | 4.67 | < 4.00 | 4.95 |  |
| O=C1NCc2cccc(-c3cc4cc(OCCCO)ccc4[nH]3)c21 | 7.00 | < 4.00 | 7.52 |  |
| COc1ccc2[nH]c(-c3cccc4c3C(=O)NC4)nc2c1 | 6.69 |  | 6.85 |  |
| CC(C)(C)OC(=O)n1cccc1-c1cccc2c1C(=O)NC2 |  |  |  | inhibition [4]: 25%; inhibition [5]: < 10%; inhibition [6]: 46% |
| CN1Cc2cccc(-c3ccc[nH]3)c2C1=O |  |  |  | inhibition [4]: 37%; inhibition [5]: 24%; inhibition [6]: < 10% |
| O=C1NCc2cccc(-c3c[nH]c4ccccc34)c21 |  |  |  | inhibition [4]: 60%; inhibition [6]: 50% |
| O=C1NCc2cccc(-c3ccc[nH]3)c21 | 6.47 |  | 5.96 | inhibition [5]: 63% |
| CCN1CCN(CCCOc2ccc3[nH]c(-c4cccc5c4C(=O)NC5)cc3c2)CC1 | 7.36 | < 4.00 | 7.85 |  |
| COc1ccc2[nH]c(-c3cccc4c3C(=O)NC4=O)cc2c1 |  |  |  | inhibition [4]: 30%; inhibition [16]: 35% |
| O=C1NCc2cccc(-c3cc4cc(OCCCN5CCCCC5)ccc4[nH]3)c21 | 6.75 | < 4.00 | 7.19 |  |
| O=C1NCc2cccc(-c3cc4cc(OCCCN5CCC(O)CC5)ccc4[nH]3)c21 | 7.21 | < 4.00 | 7.74 |  |
| COc1ccc(NC(=O)c2cccc3c2C(=O)NC3)cc1 |  |  | 5.23 | inhibition [4]: 45% |
| NC(=O)c1cccc2c1C(=O)NC2 | 4.84 |  | < 4.00 |  |
| CN1Cc2cccc(-c3cccn3C(=O)OC(C)(C)C)c2C1=O | < 4.00 | < 4.00 | < 4.00 |  |
| O=C1NCc2cccc(-c3cc4ccccc4[nH]3)c21 | 7.00 | < 4.00 | 6.84 |  |
